Laboratory results from patent US10143730B2, “Peptides and combination of peptides for use in immunotherapy against various cancers” (immatics biotechnologies GmbH, priority 2015, dated 2018).

Assays:
[1] = tested on: CD8+ T cells of healthy HLA-A*02+ donors; experiment: In vitro T-cell priming with aAPCs loaded with HLA-A*02/peptide complexes and anti-CD28, multimer staining; format: cell-based, human; conditions: HLA-A*02 peptides (SEQ ID 1-157, 229-266); peptide-specific multimer+ CD8+ T cells after aAPC priming
Description: FIGS. 4A to 4D show exemplary results of peptide-specific in vitro CD8+ T cell responses of a healthy HLA-A*02+ donor. CD8+ T cells were primed using artificial APCs coated with anti-CD28 mAb and HLA-A*02 in complex with Seq ID No 27 peptide (FIG. 4A, left panel), Seq ID No 229 peptide (FIG. 4B, left panel), Seq ID No 230 peptide (FIG. 4C, left panel) and Seq ID No 235 peptide (FIG. 4D, left panel), respectively. After three cycles of stimulation, the detection of peptide-reactive cells was performed by 2D multimer staining with A*02/Seq ID No 27 (FIG. 4A), A*02/Seq ID No 229 (FIG. 4B), A*02/Seq ID No 230 (FIG. 4C) or A*02/Seq ID No 235 (FIG. 4D). Right panels (FIGS. 4A, 4B, 4C and 4D) show control staining of cells stimulated with irrelevant A*02/peptide complexes. Viable singlet cells were gated for CD8+ lymphocytes. Boolean gates helped excluding false-positive events detected with multimers specific for different peptides. Frequencies of specific multimer+ cells among CD8+ lymphocytes are indicated.
In order to obtain information regarding the immunogenicity of the TUMAPs of the present invention, the inventors performed investigations using an in vitro T-cell priming assay based on repeated stimulations of CD8+ T cells with artificial antigen presenting cells (aAPCs) loaded with peptide/MHC complexes and anti-CD28 antibody.
In order to perform in vitro stimulations by artificial antigen presenting cells loaded with peptide-MHC complex (pMHC) and anti-CD28 antibody, the inventors first isolated CD8+ T cells from fresh HLA-A*02 leukapheresis products via positive selection using CD8 microbeads (Miltenyi Biotec, Bergisch-Gladbach, Germany) of healthy donors obtained from the University clinics Mannheim, Germany, after informed consent.
PBMCs and isolated CD8+ lymphocytes were incubated in T-cell medium (TCM) until use consisting of RPMI-Glutamax (Invitrogen, Karlsruhe, Germany) supplemented with 10% heat inactivated human AB serum (PAN-Biotech, Aidenbach, Germany), 100 U/ml Penicillin/100 μg/ml Streptomycin (Cambrex, Cologne, Germany), 1 mM sodium pyruvate (CC Pro, Oberdorla, Germany), 20 μg/ml Gentamycin (Cambrex). 2.5 ng/ml IL7 (PromoCell, Heidelberg, Germany) and 10 U/ml IL-2 (Novartis Pharma, Nürnberg, Germany) were also added to the TCM at this step.
Generation of pMHC/anti-CD28 coated beads, T-cell stimulations and readout was performed in a highly defined in vitro system using four different pMHC molecules per stimulation condition and 8 different pMHC molecules per readout condition.
The purified co-stimulatory mouse IgG2a anti human CD28 Ab 9.3 (Jung et al., 1987) was chemically biotinylated using Sulfo-N-hydroxysuccinimidobiotin as recommended by the manufacturer (Perbio, Bonn, Germany). Beads used were 5.6 μm diameter streptavidin coated polystyrene particles (Bangs Laboratories, Illinois, USA).
pMHC used for positive and negative control stimulations were A*0201/MLA-001 (peptide […] (SEQ ID NO. 303) from modified Melan-A/MART-1) and A*0201/DDX5-001 ([…] from DDX5, SEQ ID NO. 304), respectively.
800.000 beads/200 μl were coated in 96-well plates in the presence of 4×12.5 ng different biotin-pMHC, washed and 600 ng biotin anti-CD28 were added subsequently in a volume of 200 μl. Stimulations were initiated in 96-well plates by co-incubating […] CD8+ T cells with 2×10^5 washed coated beads in 200 μl TCM supplemented with 5 ng/ml IL-12 (PromoCell) for 3 days at 37° C. Half of the medium was then exchanged by fresh TCM supplemented with 80 U/ml IL-2 and incubating was continued for 4 days at 37° C. This stimulation cycle was performed for a total of three times. For the pMHC multimer readout using 8 different pMHC molecules per condition, a two-dimensional combinatorial coding approach was used as previously described (Andersen et al., 2012) with minor modifications encompassing coupling to 5 different fluorochromes. […]

[2] = biological target: T1, HLA-A*02 (Homo sapiens, UniProt P04439, D140Y/D185E/D98H/E176V/E277Q/G131W/G231S/I119V/I121R/I166T/I218V/L300P/N151K/N90K/P208A/P217A/Q86G/Q94H/R138H/R169H); experiment: MHC binding assay, UV-ligand exchange with beta2m ELISA (peptide exchange yield); conditions: binding to HLA-A*02
T1 construct: made in house
Procedure, shortened: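 pMHC complexes formed by UV-induced cleavage of a photolabile peptide and exchange with candidate peptide; exchange yield measured by streptavidin-capture ELISA detecting β2m with HRP anti-β2m, TMB, A450. Exchange samples diluted 100-fold; refolded HLA-A*02:01/MLA-001 monomers (15-500 ng/ml) as standards; incubations 1 h, 37 °C.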

| Substance | Wells positive [%] (in vitro immunogenicity) [1] | Peptide exchange (MHC class I binding score, peptide exchange yield) [2] |
| --- | --- | --- |
| 27 (RLMEENWNA; listed as Homo sapiens) [compound 27] | +++ (50%-69% = +++) | +++ (50%-75% = +++) |
| 29 (YLLDPSITL; listed as Homo sapiens) [compound 29] | + (<20% = +) | +++ (50%-75% = +++) |
| 31 (TITETTVEV; listed as Homo sapiens) [compound 31] | + (<20% = +) | +++ (50%-75% = +++) |
| 35 (FLLPFSTVYL; listed as Homo sapiens) [compound 35] | + (<20% = +) | +++ (50%-75% = +++) |
| 90 (FLQDLEQRL; listed as Homo sapiens) [compound 90] | + (<20% = +) | +++ (50%-75% = +++) |
| 92 (GLLFSLRSV; listed as Homo sapiens) [compound 92] | ++ (20%-49% = ++) | ++++ (> = 75% = ++++) |
| 96 (LLVSHLYLV; listed as Homo sapiens) [compound 96] | ++ (20%-49% = ++) | ++ (20%-49% = ++) |
| 138 (ALLAKILQI; listed as Homo sapiens) [compound 138] | ++ (20%-49% = ++) | +++ (50%-75% = +++) |
| 141 (FLDKVLVAA; listed as Homo sapiens) [compound 141] | + (<20% = +) | +++ (50%-75% = +++) |
| 144 (ALLAFFPGL; listed as Homo sapiens) [compound 144] | +++ (50%-69% = +++) | +++ (50%-75% = +++) |
| 149 (ILNTHITEL; listed as Homo sapiens) [compound 149] | + (<20% = +) | +++ (50%-75% = +++) |
| 150 (VLYDRPLKI; listed as Homo sapiens) [compound 150] | ++ (20%-49% = ++) | +++ (50%-75% = +++) |
| 151 (SVLDSTAKV; listed as Homo sapiens) [compound 151] | ++ (20%-49% = ++) | ++ (20%-49% = ++) |
| 229 (AILAHLNTV; listed as Homo sapiens) [compound 229] | ++ (20%-49% = ++) | ++++ (> = 75% = ++++) |
| 230 (KLQNIMMLL; listed as Homo sapiens) [compound 230] | ++++ (> = 70% = ++++) | ++ (20%-49% = ++) |
| 232 (KIFPAALQLV; listed as Homo sapiens) [compound 232] | ++ (20%-49% = ++) | +++ (50%-75% = +++) |
| 233 (HLFDAFVSV; listed as Homo sapiens) [compound 233] | ++ (20%-49% = ++) | +++ (50%-75% = +++) |
| 235 (KIIDFLSAL; listed as Homo sapiens) [compound 235] | +++ (50%-69% = +++) | +++ (50%-75% = +++) |
| 247 (ALYEGYATV; listed as Homo sapiens) [compound 247] | ++ (20%-49% = ++) | +++ (50%-75% = +++) |
| 248 (YLDRFLAGV; listed as Homo sapiens) [compound 248] | ++ (20%-49% = ++) | ++++ (> = 75% = ++++) |
| 249 (GLCERLVSL; listed as Homo sapiens) [compound 249] | + (<20% = +) | ++++ (> = 75% = ++++) |
| 251 (ALSVLRLAL; listed as Homo sapiens) [compound 251] | ++ (20%-49% = ++) | +++ (50%-75% = +++) |
